Several values for one entry are separate records, joined by “and”; a condition that tells them apart may be missing. Identical values can stand only once. Like-named read-outs stand apart in the source and are kept apart here. One block for each molecule: values may come before it.
Assays:
[1] = Conversion of CLA acetal to aldehyde using acid (HPLC); type: physicochemical; conditions: 5 mg/mL in water
Method: Solutions of CLA diethyl acetal in water were prepared at a concentration of 5 mg/mL and the pH was adjusted to values shown in Table 8 using concentrated hydrochloric acid. Each solution was incubated at different times at room temperature. Samples were removed at each time point and quenched using basic phosphate buffer, yielding a final pH of 9. The quenched samples were analyzed using an Agilent 1100 HPLC system. The aldehyde was chromatographically separated from the acetal on a C18 reverse-phase HPLC column, using a linear gradient where the starting mobile phase was 0.1% trifluoroacetic acid in a 99:1 water:acetonitrile mixture and the final mobile phase was 0.1% trifluoroacetic acid in a 50:50 water:acetonitrile mixture. The absorbance at 220 nm was monitored, and the area of the peak corresponding to elution of the CLA diethyl acetal was computed.

[2] = Single-dose oral rat toxicology study of CLA acetal; type: in vivo, Sprague Dawley rats; conditions: rats, oral gavage, 250, 1000, 2000 mg/kg, up to 24 hours after dosing
Method: Sprague Dawley rats were administered single doses of CLA acetal by oral gavage at 7-8 weeks of age. Each group received a single oral dose level of CLA acetal, ranging in amount from 0 to 2000 mg/kg. The vehicle consisted of Dulbecco's phosphate-buffered saline.

[3] = Uptake and conversion of CLA acetal in rat gastrocnemius muscle; type: in vivo
Method: This experiment was designed to measure the uptake of CLA acetal in rat gastrocnemius muscle and to detect conversion of CLA acetal to CLA as it occurs in rat muscle. […] At different times following administration of drug, each rat was sacrificed, the left and right gastrocnemius muscles were dissected from the rat, and the muscles were frozen by immersion in liquid nitrogen and storage in a −80° C. freezer.
The muscle tissues were thawed and homogenized using a blender.

[4] = Qualitative oral bioavailability of CLA acetal in the rat (plasma); conditions: for Estimated Plasma Concentration of CLA acetal / Estimated Plasma Concentration of CLA aldehyde: rat plasma
calpain [5] = conditions: rats, IP, muscle isolated after 2 hours
Method: An initial series of toxicology experiments was performed in rats to assess the effect of CLA at various doses, on animal viability. […] A series of experiments to examine the ability of CLA vs. leupeptin to decrease activated calpain levels and inhibit muscle wasting was conducted. In the experiment shown in Table 4, rats were utilized to assess the effect of IP injection of either leupeptin or CLA into the hind limb muscle on their ability to inhibit calpain activity. To this end, four rats were injected IP with either leupeptin or CLA. After 2 hours, the muscle was isolated, homogenized, and assayed for remaining calpain activity by the standard assay.

mdx mice = conditions: for Myofiber diameter (Gastrocnemis) / Myofiber diameter, Diaphragm: injected parenterally daily from one to two months
Method: CLA was injected parenterally daily at the indicated concentrations into mdx mice from one to two months. Mdx control mice were injected with saline alone. At two months, the animals were sacrificed and indicated muscles removed, fixed, and stained for myofiber diameter analysis.

[6] = rats, various doses
[7] = system: rat hind limb muscle (sciatic nerve denervation); conditions: for % loss (muscle atrophy due to denervation): rat
[8] = rats
calpain [9] = conditions: RD muscle cells
porcine kidney calpain 2 = porcine kidney calpain 2 (Sus scrofa, UniProt I3LQD3); test: Enzymatic calpain assay with fluorogenic substrate; type: biochemical; conditions: porcine kidney calpain 2, 37° C., 10 mM calcium chloride
porcine kidney calpain 2, sequence (P04574 whole entry): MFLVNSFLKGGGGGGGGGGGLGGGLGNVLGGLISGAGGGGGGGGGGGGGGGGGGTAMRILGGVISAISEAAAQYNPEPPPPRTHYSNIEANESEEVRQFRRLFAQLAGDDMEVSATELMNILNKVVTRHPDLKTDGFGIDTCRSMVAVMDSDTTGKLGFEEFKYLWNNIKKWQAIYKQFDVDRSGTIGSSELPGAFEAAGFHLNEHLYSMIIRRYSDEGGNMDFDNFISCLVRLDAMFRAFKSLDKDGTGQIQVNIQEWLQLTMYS
porcine kidney calpain 2, sequence (I3LQD3 entry or part of it): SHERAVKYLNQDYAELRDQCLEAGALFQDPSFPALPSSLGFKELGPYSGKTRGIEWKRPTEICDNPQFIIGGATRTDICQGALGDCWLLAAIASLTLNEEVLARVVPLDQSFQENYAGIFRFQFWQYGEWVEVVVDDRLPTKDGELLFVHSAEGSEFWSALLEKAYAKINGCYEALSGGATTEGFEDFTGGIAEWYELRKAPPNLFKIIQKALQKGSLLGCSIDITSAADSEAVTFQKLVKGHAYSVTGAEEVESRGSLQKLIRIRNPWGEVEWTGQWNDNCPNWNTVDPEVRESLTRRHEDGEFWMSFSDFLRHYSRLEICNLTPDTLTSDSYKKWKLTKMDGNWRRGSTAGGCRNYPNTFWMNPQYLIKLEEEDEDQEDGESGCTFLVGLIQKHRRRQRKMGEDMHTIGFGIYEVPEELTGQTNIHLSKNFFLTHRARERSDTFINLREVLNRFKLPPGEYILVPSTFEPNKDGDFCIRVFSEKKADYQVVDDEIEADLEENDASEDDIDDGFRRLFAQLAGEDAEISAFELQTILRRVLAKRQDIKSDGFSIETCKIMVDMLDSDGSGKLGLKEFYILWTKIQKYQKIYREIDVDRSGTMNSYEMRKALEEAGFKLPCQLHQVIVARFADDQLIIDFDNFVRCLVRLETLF
Text: The α-carbon stereocenter adjacent to the aldehyde group of CLA can be prepared in a “natural” L or “unnatural” D configuration. It is known however that enolization of such aldehydes can easily occur during synthesis, storage, or administration of such peptide aldehydes to patients, with the result that the α-carbon stereocenter undergoes racemization. To investigate the relative biological activity of the optical isomers of CLA, the pure form of both the L-argininal diethyl […] diethyl acetal forms of CLA were prepared via the method described in Example 11 below using both L and D enantiomers of the […] starting materials. […] Slopes were calculated for the initial phase of each reaction and the ratios of velocities for each compound concentration (Vi) to the uninihibited reaction velocity (V0) were calculated, plotted, and fitted to a rectangular hyperbola using the program Kaleidagraph (Synergy software). […] An increase in enzyme activity appears to occur at intermediate concentrations of the D-isomer (Panel B.). This increase may be due to weak binding at an allosteric site that is not inhibitory the enzyme.

[10] = rat left gastrocnemius, 2 hours after oral 50 mg/kg CLA acetal acetate salt
[11] = rat right gastrocnemius, 6 hours after oral 50 mg/kg CLA acetal acetate salt
[12] = rat right gastrocnemius, 8 hours after oral 50 mg/kg CLA acetal acetate salt, one line per rat, 50 mg/kg
[13] = 45 minutes after single oral gavage of 50 mg/kg CLA acetal acetate salt, single rat

Structure (SMILES): CC(=O)O.CCOC(OCC)[C@H](CCCNC(=N)N)NC(=O)[C@H](CC(C)C)NC(=O)CCC(=O)N[C@H](CC(=O)[O-])C[N+](C)(C)C [CLA acetal, aminocarnityl-succinyl-leucyl-argininal diethyl acetal]
Percent acetal remaining ([1]; pH = 0, room temperature, activation time 0 min): 100.0% | Percent acetal remaining ([1]; pH = 0, room temperature, activation time 5 min): 80.0% | Percent acetal remaining ([1]; pH = 0, room temperature, activation time 15 min): 28.5% | Percent acetal remaining ([1]; pH = 0, room temperature, activation time 30 min): 11.2% | Percent acetal remaining ([1]; pH = 0, room temperature, activation time 45 min): 11.3% | Percent acetal remaining ([1]; pH = 0, room temperature, activation time 60 min): 11.3% | Percent acetal remaining ([1]; pH = 0, room temperature, activation time 90 min): 9.0% | Percent acetal remaining ([1]; pH = 0, room temperature, activation time 120 min): 10.9% | Percent acetal remaining ([1]; pH = 0, room temperature, activation time 240 min): 9.3% | Percent acetal remaining ([1]; pH = 0, room temperature, activation time 1440 min): 9.1% | Percent acetal remaining ([1]; pH = 1.0, room temperature, activation time 0 min): 100.0% | Percent acetal remaining ([1]; pH = 1.0, room temperature, activation time 5 min): 100.6% | Percent acetal remaining ([1]; pH = 1.0, room temperature, activation time 15 min): 97.3% | Percent acetal remaining ([1]; pH = 1.0, room temperature, activation time 30 min): 92.2% | Percent acetal remaining ([1]; pH = 1.0, room temperature, activation time 45 min): 86.9% | Percent acetal remaining ([1]; pH = 1.0, room temperature, activation time 60 min): 81.7% | Percent acetal remaining ([1]; pH = 1.0, room temperature, activation time 90 min): 72.7% | Percent acetal remaining ([1]; pH = 1.0, room temperature, activation time 120 min): 64.8% | Percent acetal remaining ([1]; pH = 1.0, room temperature, activation time 240 min): 42.2% | Percent acetal remaining ([1]; pH = 1.0, room temperature, activation time 1440 min): 6.4% | toxicity after single oral dose [2]: No evidence of toxicity | Muscle concentration of prodrug [3, 10]: 37.4 ng per gram | Muscle concentration of prodrug [3, 11]: 9.7 ng per gram | Muscle concentration of prodrug [3, 12]: 10.3 ng per gram and 9.2 ng per gram | Estimated Plasma Concentration of CLA acetal [4, 13]: 5,840 ng/mL | Estimated Plasma Concentration of CLA acetal ([4]; 60 minutes after single oral gavage of 50 mg/kg CLA acetal acetate salt, one line per rat, 50 mg/kg): 970 ng/mL and 8240 ng/mL and 51200 ng/mL | oral absorption ([4]; rats, 50 mg/kg oral gavage): absorbed intact

Structure (SMILES): CC(C)C[C@H](NC(=O)CCC(=O)N[C@H](CC(=O)O)C[N+](C)(C)C)C(=O)N[C@H](C=O)CCCNC(=N)N.Cl.[Cl-] [CLA, aminocarnityl-succinyl-leucyl-argininal]
% inhibition of muscle calpain activity (calpain [5]; 14 μmoles): 48% | % inhibition/μmole (calpain [5]): 3.5% | Fold (effectiveness per μmole relative to leupeptin) (calpain [5]): 13.5 | Myofiber diameter (Gastrocnemis) (mdx mice; 5 mg): 28.7 ± 7 mm | Myofiber diameter, Diaphragm (mdx mice; 5 mg): 25.1 ± 7.3 mm | Myofiber diameter (Gastrocnemis) (mdx mice; 10 mg): 30.6 ± 11 mm | Myofiber diameter, Diaphragm (mdx mice; 10 mg): 25.4 ± 7.3 mm | effectiveness relative to leupeptin alone (mdx mice; retention of muscle size): at least five to seven times more effective | Muscle concentration of active drug [3, 10]: 124.6 ng per gram | Percent of drug present as the active form [3, 10]: 76.9% | Muscle concentration of active drug [3, 11]: 683.6 ng per gram | Percent of drug present as the active form [3, 11]: 98.6% | Muscle concentration of active drug [3, 12]: 758.4 ng per gram and 330.8 ng per gram | Percent of drug present as the active form [3, 12]: 98.7% and 97.3% | toxic effect on animal viability [6]: No toxic effect | % loss (muscle atrophy due to denervation) ([7]; 1.0 mg/kg injected 2x/day for seven days): 5.2 ± 1% | % loss (muscle atrophy due to denervation) ([7]; 3.0 mg/kg injected 2x/day for seven days): <1.0% | % loss (muscle atrophy due to denervation) ([7]; 6.0 mg/kg injected 2x/day for seven days): <1.0% | health / toxic effect in denervation study ([7]; rats, seven days of injections): remained healthy without any apparent negative toxic effect | lethality ([8]; intravenous bolus, 500 mg/kg): lethal | maximum tolerated dose ([8]; single intravenous dose): 200 mg/kg | no adverse effect limit (NOAEL) ([8]; single intravenous dose): 100 mg/kg | toxicity ([8]; single intravenous dose, 50 and 100 mg/kg): No toxicity | fold lower IC50 than leupeptin (calpain [9]): approximately 200 fold | Estimated Plasma Concentration of CLA aldehyde [4, 13]: <20 ng/mL | Estimated Plasma Concentration of CLA aldehyde ([4]; 60 minutes after single oral gavage of 50 mg/kg CLA acetal acetate salt, one line per rat, listed as CLA aldehyde, 50 mg/kg): <20 ng/mL (2×) and 72 ng/mL

IC50 (porcine kidney calpain 2; FIG. 7 Panel B): > 100000 nM
Structure (SMILES): CC(C)CC(NC(=O)CCC(=O)NC(CC(=O)[O-])C[N+](C)(C)C)C(=O)NC(C=O)CCCNC(=N)N [D-isomer]

IC50 (porcine kidney calpain 2; FIG. 7 Panel A): 500 to 1000 nM
Structure (SMILES): CC(C)CC(NC(=O)CCC(=O)NC(CC(=O)[O-])C[N+](C)(C)C)C(=O)NC(C=O)CCCNC(=N)N [L-isomer of CLA]

From patent publication US20080039531A1, “Compositions, and kits comprising targeted aldehyde or acetal protease inhibitor compounds for treating muscle disorders” (priority 2005, published 2008)
